Test results: the supplement of paper PMC13380429

Tests used:
A549-ACE2 [1] = assay: drug-induced phospholipidosis relative to tamoxifen; higher = more phospholipidosis
[2] = tested on: A549-ACE2 infected with SARS-CoV-2; assay: cell count relative to DMSO; higher = less toxic; conditions: 24 h
Caco-2 [3] = assay: drug sensitivity score (DSS) for viability; higher = more toxic; extreme values may be limits of the assay; conditions: 72 h
U2OS [4] = assay: as above; conditions: 72 h
Vero E6 [5] = assay: as above; conditions: 72 h
Calu-3 [6] = assay: as above; conditions: 72 h
HepG2 [7] = assay: as above; conditions: 72 h
Caco-2 [8] = assay: relative viability EC50 (midpoint between 100% and the lowest measured viability); higher = less toxic; conditions: 72 h
U2OS [9] = assay: as above; conditions: 72 h
Vero E6 [10] = assay: as above; conditions: 72 h
Calu-3 [11] = assay: as above; conditions: 72 h
HepG2 [12] = assay: as above; conditions: 72 h
[13] = tested on: A549-ACE2 infected with SARS-CoV-2; assay: morphology score (similarity to uninfected cells); higher = more like uninfected cells; conditions: 24 h
[14] = tested on: A549-ACE2 infected with SARS-CoV-2; assay: SARS-CoV-2 infection rate relative to DMSO; higher = more infection; conditions: 24 h
Caco-2 [15] = assay: cell viability relative to DMSO; higher = less toxic; conditions: 72 h
U2OS [16] = assay: as above; conditions: 72 h
Vero E6 [17] = assay: as above; conditions: 72 h
Calu-3 [18] = assay: as above; conditions: 72 h
HepG2 [19] = assay: as above; conditions: 72 h
A549-ACE2 [20] = assay: phospholipidosis EC50; higher = less potent phospholipidosis inducer

CCCN1CCN(c2ccc(C(=O)NC3(C(=O)NCC#N)CCCCC3)cc2)CC1 [balicatib]
drug-induced phospholipidosis [%], A549-ACE2 [1]
Conditions	0.3 µM	0.833333 µM	3.33333 µM	6.66667 µM	10 µM	30 µM
24 h	1.43	-0.89	1.98	6.47	8.06	17.1
48 h	1.09	-1.16	0.49	4.83	7.84	17.9
72 h	4.12	-0.524	1.07	5.37	8.73	20.4

Conditions	SARS-CoV-2 infection rate, [14] [%]	cell count, [2] [%]	cell viability, Caco-2 [15] [%]	cell viability, Calu-3 [18] [%]	cell viability, HepG2 [19] [%]	cell viability, U2OS [16] [%]	cell viability, Vero E6 [17] [%]	morphology score, [13]
1 nM	–	–	107	108	90	100	99.7	–
10 nM	–	–	101	100	103	99.7	108	–
100 nM	–	–	102	98.8	114	95	108	–
0.3 µM	86	107	–	–	–	–	–	0.39
1000 nM	–	–	95.4	108	104	103	98.1	–
3 µM	45	116	–	–	–	–	–	0.76
10 µM	33	119	–	–	–	–	–	0.78
10000 nM	–	–	106	110	101	95.4	105	–
30 µM	20	117	–	–	–	–	–	0.83

Conditions	drug sensitivity score	relative viability EC50 [µM]
Caco-2 [3]	0	–
Caco-2 [8]	–	> 10
Calu-3 [6]	0	–
Calu-3 [11]	–	> 10
HepG2 [7]	0	–
HepG2 [12]	–	> 10
U2OS [4]	0	–
U2OS [9]	–	> 10
Vero E6 [5]	0	–
Vero E6 [10]	–	> 10

C[C@@H](NCCCc1cccc(C(F)(F)F)c1)c1cccc2ccccc12 [cinacalcet]
drug-induced phospholipidosis [%], A549-ACE2 [1]
Conditions	0.3 µM	0.833333 µM	3.33333 µM	6.66667 µM	10 µM	30 µM
24 h	3.21	8.87	65.6	89.9	102	53.7
48 h	2.84	6.54	45.1	87.9	107	–
72 h	4.18	6.97	37.3	82.3	102	–

Conditions	SARS-CoV-2 infection rate [%]	cell count [%]	cell viability [%]	morphology score	phospholipidosis EC50 [µM]
A549-ACE2 [20], 24 h	–	–	–	–	2.77
A549-ACE2 [20], 48 h	–	–	–	–	4.97
A549-ACE2 [20], 72 h	–	–	–	–	5.11
Caco-2 [15], 1 nM	–	–	99.8	–	–
Caco-2 [15], 10 nM	–	–	96.4	–	–
Caco-2 [15], 100 nM	–	–	100	–	–
Caco-2 [15], 1000 nM	–	–	89.1	–	–
Caco-2 [15], 10000 nM	–	–	68.4	–	–
Calu-3 [18], 1 nM	–	–	109	–	–
Calu-3 [18], 10 nM	–	–	109	–	–
Calu-3 [18], 100 nM	–	–	101	–	–
Calu-3 [18], 1000 nM	–	–	98.6	–	–
Calu-3 [18], 10000 nM	–	–	7.3	–	–
HepG2 [19], 1 nM	–	–	98	–	–
HepG2 [19], 10 nM	–	–	102	–	–
HepG2 [19], 100 nM	–	–	87.9	–	–
HepG2 [19], 1000 nM	–	–	96.4	–	–
HepG2 [19], 10000 nM	–	–	66.3	–	–
U2OS [16], 1 nM	–	–	106	–	–
U2OS [16], 10 nM	–	–	95.8	–	–
U2OS [16], 100 nM	–	–	103	–	–
U2OS [16], 1000 nM	–	–	99.6	–	–
U2OS [16], 10000 nM	–	–	89.4	–	–
Vero E6 [17], 1 nM	–	–	102	–	–
Vero E6 [17], 10 nM	–	–	106	–	–
Vero E6 [17], 100 nM	–	–	104	–	–
Vero E6 [17], 1000 nM	–	–	101	–	–
Vero E6 [17], 10000 nM	–	–	82.2	–	–
[2], 0.3 µM	–	96	–	–	–
[2], 3 µM	–	103	–	–	–
[2], 10 µM	–	87	–	–	–
[13], 0.3 µM	–	–	–	0.09	–
[13], 3 µM	–	–	–	0.67	–
[13], 10 µM	–	–	–	0.55	–
[14], 0.3 µM	93	–	–	–	–
[14], 3 µM	59	–	–	–	–
[14], 10 µM	54	–	–	–	–

Conditions	drug sensitivity score	relative viability EC50 [µM]
Caco-2 [3]	2.9	–
Calu-3 [6]	5.3	–
Calu-3 [11]	–	3.06
HepG2 [7]	2.2	–
U2OS [4]	0	–
U2OS [9]	–	> 10
Vero E6 [5]	0.4	–
Vero E6 [10]	–	> 10

CNc1cc(OC)c(C(=O)NC2CCN(Cc3ccccc3)C2C)cc1Cl (centres undefined) [nemonapride]
drug-induced phospholipidosis [%], A549-ACE2 [1]
Conditions	0.3 µM	0.833333 µM	3.33333 µM	6.66667 µM	10 µM	30 µM
24 h	1.28	6.8	10.9	12.3	18.5	51
48 h	3.09	4.55	12.9	15.7	16.3	43.9
72 h	5.92	4.8	14.4	19.3	24.2	53.2

Conditions	SARS-CoV-2 infection rate, [14] [%]	cell count, [2] [%]	cell viability, Caco-2 [15] [%]	cell viability, Calu-3 [18] [%]	cell viability, HepG2 [19] [%]	cell viability, U2OS [16] [%]	cell viability, Vero E6 [17] [%]	morphology score, [13]
1 nM	–	–	101	92.2	96	90.7	99.1	–
10 nM	–	–	104	98	96.1	99.4	91.9	–
100 nM	–	–	104	92.6	98.1	94.5	99.5	–
0.3 µM	100	99	–	–	–	–	–	-0.15
1000 nM	–	–	108	105	94.2	98.6	94.7	–
3 µM	61	111	–	–	–	–	–	0.69
10 µM	49	123	–	–	–	–	–	0.82
10000 nM	–	–	90.5	87.5	83.4	93.8	100	–
30 µM	16	122	–	–	–	–	–	0.86

Conditions	drug sensitivity score	relative viability EC50 [µM]
Caco-2 [3]	0	–
Caco-2 [8]	–	> 10
Calu-3 [6]	0	–
Calu-3 [11]	–	> 10
HepG2 [7]	0.6	–
HepG2 [12]	–	> 10
U2OS [4]	0	–
U2OS [9]	–	> 10
Vero E6 [5]	0	–
Vero E6 [10]	–	> 10

CCSc1ccc2c(c1)N(CCCN1CCN(C)CC1)c1ccccc1S2 [thiethylperazine]
drug-induced phospholipidosis [%], A549-ACE2 [1]
Conditions	0.3 µM	0.833333 µM	3.33333 µM	6.66667 µM	10 µM	30 µM
24 h	2.75	4.77	26.3	67.4	80	53.2
48 h	3.55	4.25	19.4	77.1	97	–
72 h	4.26	5.76	19.6	70	104	–

Conditions	SARS-CoV-2 infection rate [%]	cell count [%]	cell viability [%]	morphology score	phospholipidosis EC50 [µM]
A549-ACE2 [20], 24 h	–	–	–	–	3.52
A549-ACE2 [20], 48 h	–	–	–	–	5.17
A549-ACE2 [20], 72 h	–	–	–	–	6.75
Caco-2 [15], 1 nM	–	–	101	–	–
Caco-2 [15], 10 nM	–	–	95.4	–	–
Caco-2 [15], 100 nM	–	–	91.7	–	–
Caco-2 [15], 1000 nM	–	–	98.4	–	–
Caco-2 [15], 10000 nM	–	–	69.6	–	–
Calu-3 [18], 1 nM	–	–	101	–	–
Calu-3 [18], 10 nM	–	–	89.2	–	–
Calu-3 [18], 100 nM	–	–	95.9	–	–
Calu-3 [18], 1000 nM	–	–	110	–	–
Calu-3 [18], 10000 nM	–	–	59.9	–	–
HepG2 [19], 1 nM	–	–	98	–	–
HepG2 [19], 10 nM	–	–	100	–	–
HepG2 [19], 100 nM	–	–	101	–	–
HepG2 [19], 1000 nM	–	–	89.5	–	–
HepG2 [19], 10000 nM	–	–	55.6	–	–
U2OS [16], 1 nM	–	–	103	–	–
U2OS [16], 10 nM	–	–	102	–	–
U2OS [16], 100 nM	–	–	106	–	–
U2OS [16], 1000 nM	–	–	106	–	–
U2OS [16], 10000 nM	–	–	91.6	–	–
Vero E6 [17], 1 nM	–	–	97.7	–	–
Vero E6 [17], 10 nM	–	–	95.5	–	–
Vero E6 [17], 100 nM	–	–	95	–	–
Vero E6 [17], 1000 nM	–	–	102	–	–
Vero E6 [17], 10000 nM	–	–	83.2	–	–
[2], 0.3 µM	–	98	–	–	–
[2], 3 µM	–	116	–	–	–
[2], 10 µM	–	122	–	–	–
[2], 30 µM	–	17	–	–	–
[13], 0.3 µM	–	–	–	0.15	–
[13], 3 µM	–	–	–	0.81	–
[13], 10 µM	–	–	–	0.8	–
[13], 30 µM	–	–	–	-0.01	–
[14], 0.3 µM	99	–	–	–	–
[14], 3 µM	40	–	–	–	–
[14], 10 µM	12	–	–	–	–
[14], 30 µM	61	–	–	–	–

Conditions	drug sensitivity score	relative viability EC50 [µM]
Caco-2 [3]	1.6	–
Calu-3 [6]	1.5	–
HepG2 [7]	3.9	–
U2OS [4]	0	–
U2OS [9]	–	> 10
Vero E6 [5]	0.3	–
Vero E6 [10]	–	> 10
